Test results taken from article PMC6278556, “An Accurate and Effective Method for Measuring Osimertinib by UPLC-TOF-MS and Its Pharmacokinetic Study in Rats” (Molecules, 2018).
Read-outs that look alike come from different tables or passages of the source.

What was measured:
[1] = Stability of osimertinib in rat plasma under various storage conditions; assay type: in vitro ADME
Experimental: The stabilities of this method, which include the freeze–thaw stability, autosampler stability, short-term stability and long-term stability, were evaluated through three QC samples after the sample preparation method. […] In addition, the long-term stability was evaluated through the determination of three QC samples that were kept at −80 °C for 30 days. All samples were considered stable with RSDs < ±15%.

[2] = Pharmacokinetic study in SD rats after oral administration; assay type: in vivo; conditions: n = 7, mean ± SD, non-compartmental
Experimental: The pharmacokinetic study of osimertinib was applied to seven male SD rats using oral administration by gavage and the dosage was 4.5 mg/kg. Osimertinib was diluted and suspended by 0.5% sodium carboxymethylcellulose. No less than 0.3 mL rat plasma was sampled at 0, 1, 2, 3, 4, 5, 6, 7, 8, 10, 12, 24, 36, and 48 h after oral administration through the oculi chorioideae vein under the condition of light ether anesthesia. After 10 min centrifuging of all analytes at 5000× g, the supernatant was collected and frozen at −40 °C until analysis. The use of animals in the presented study was permitted by the Ethics Committee of the Hebei Medical University, and all animal studies were carried out according to the Guidance for the Care and Use of Laboratory Animals of the US National Institute of Health.
Ten microliters of IS solution (500 ng/mL) was prepared in 100 μL rat plasma and vortex-mixed for 20 s. After that step, 500 μL of acetonitrile was added to precipitate the protein. Then, the mixture was vortexed for 1 min and centrifuged at 12,000 rpm for 10 min. The supernatant was transferred into a new Eppendorf tube and evaporated to dryness through nitrogen gas at 45 °C. After 100 μL of acetonitrile was added to reconstitute the residue and vortexed for 1 min, all samples were centrifuged at 12,000× g for 10 min. Finally, 80 μL of the supernatant was collected and injected into UPLC sample vials before use.
Dynamic background subtraction is a novel technique performed using the Analyst software (AB Sciex, Foster City, CA, USA). In addition, the data of the pharmacokinetic study of osimertinib were collected and calculated by the DAS 2.1.1 software in the non-compartmental mode (Mathematical Pharmacology Professional Committee of China, Shanghai, China).

[3] = stated without source; cited from earlier work
[4] = Sprague-Dawley (SD), rat, plasma, male SD rats, oral 4.5 mg/kg

Stability in words ([1]; plasma samples, storage temperature (−80 °C) for at least 30 days): stable
Stability in words ([1]; rat plasma, autosampler temperature (4 °C) for 24 h): good stability
Stability in words ([1]; rat plasma, room temperature (25 °C) for 24 h): good stability
Stability in words ([1]; rat plasma, three freeze (−80 °C) and thaw (0 °C) cycles): remained stable
AUC(0-inf) [2, 4]: 426 ± 81.7 ng·h/mL
AUC(0-t) [2, 4]: 382 ± 69 ng·h/mL
Cmax [2, 4]: 28.5 ± 3.97 ng/mL
MRT [2, 4]: 14.5 ± 1.91 h
Vd/F ([2]; Sprague-Dawley (SD), rat, plasma, male SD rats, oral 4.5 mg/kg, read-out: Vz/F (distribution volume)): 234 ± 66.7 L/kg
half-life ([2]; Sprague-Dawley (SD), rat, plasma, male SD rats, oral 4.5 mg/kg, read-out: t1/2z (terminal half-life) (converted)): 15 ± 3.44 h
CLz/F (clearance) ([2]; male SD rats, oral 4.5 mg/kg): 180.7 ± 32.3 mL/min/kg
tmax ([2]; male SD rats, oral 4.5 mg/kg, 4.5 mg/kg): 4.80 ± 1.10 h
CL/F ([2]; male, Sprague-Dawley (SD), rat, plasma, po, 4.5 mg/kg, read-out: CLz/F (clearance) (converted)): ~181 mL/min/kg
tmax ([2]; male, Sprague-Dawley (SD), rat, plasma, po, 4.5 mg/kg, read-out: tmax): 4.5 h
Structure (SMILES): C=CC(=O)Nc1cc(Nc2nccc(-c3cn(C)c4ccccc34)n2)c(OC)cc1N(C)CCN(C)C [Osimertinib, N-(2-{2dimethylaminoethyl-methylamino}-4-methoxy-5-{[4-(1-methylindol-3-yl)pyrimidin-2yl]amino}phenyl)prop-2-enamide]
pKa [3]: 13.64
